In PMC5844530, “Fosmetpantotenate (RE-024), a phosphopantothenate replacement therapy for pantothenate kinase-associated neurodegeneration: Mechanism of action and efficacy in nonclinical models” (PLoS ONE, 2018):
“And” between values parts separate entries of the source, which are not always exact repeats. Identical values can stand only once.

Key:
[1] = system: PanK2 knockdown cells (acetylated tubulin); assay: Western blot analysis of acetylated tubulin; assay type: cell-based, human; details: for Tubulin Acetylation (fold of control): mean ± SD of 3 independent experiments, β-actin normalization; for Acetyl tubulin level (fold over vehicle): single experiments Exp1 (n=1), Exp2 (n=3), Exp3 (n=3), listed as RE-024; for Acetyl tubulin (quantification) / Acetyl tubulin Normalized (to actin): 1 µM fosmetpantotenate, replicates 1-2
Experimental: After incubation, the cells were lysed in RIPA buffer containing 300 mM NaCl, 10 mM Tris HCl pH 8.0, 10 mM KCl, 1 mM ethylenediaminetetraacetic acid (EDTA), 1% Nonidet-P40, 1% sodium deoxycholate, 0.1% SDS, 1 mM phenylmethanesulfonyl fluoride, and protease inhibitor cocktail (11697498001, Roche, Indianapolis, IN), and sonicated on ice with a Branson 450 sonicator through 2 cycles of ten 2s pulses (1 min pause between cycles). Total protein concentration was determined using a Bio-Rad Protein Assay (500–0006, Biorad, Hercules, CA). Cell extracts were subjected to sodium dodecyl sulfate polyacrylamide gel electrophoresis (SDS-PAGE) analysis (4–12%, NP0335BOX, Life Technologies, Great Island, NY) and transferred to a nitrocellulose membrane (10401396, Whatman, Maidstone, UK). Immunostaining was accomplished by overnight incubation with primary antibodies followed by 1 h of incubation with dye-conjugated secondary antibodies according to the manufacturer’s instructions. Protein detection was achieved using an Infrared Odyssey system (LiCor, Lincoln, NE). Densitometric analysis of western blots was performed using ImageJ software; the statistical significance was determined using a t-test. Actin was used as a normalization probe.

[2] = Stability in simulated gastric fluid; assay type: in vitro ADME; details: simulated gi fluid; pH 1.2; 3.2 mg/mL pepsin; 10 μM; read-out: half-life (t½) in simulated gastric fluid
Experimental: Stability in simulated gastric fluid: A stock solution of fosmetpantotenate or its individual diastereomers was prepared in 0.1% formic acid in methanol. Simulated gastric fluid, pH 1.2, was prepared with 2 g/L sodium chloride, 3.2 g/L of pepsin, and 0.7% (v/v) HCl. Gastric buffer, pH 1.2, was prepared containing 2 g/L sodium chloride and 0.7% (v/v) HCl. An appropriate aliquot of fosmetpantotenate or individual diastereomers to yield an initial concentration of 10 μM was added to both fluids, and samples were mixed at ~25°C on an orbital shaker. Aliquots (50 μL) were taken at 0, 2, and 4 h; added to 150 μL dimethyl sulfoxide (DMSO) containing an analytical internal standard; vortexed; and analyzed immediately by LC-MS/MS.
Bioanalysis for determinations of analyte stability: Samples were analyzed using a benchtop tandem quadrupole detector (TQD) mass spectrometer (Waters Ltd, Centennial Park, Hertfordshire). […] Suitable retention and peak shape with separation of the 2 diastereomers were obtained. The chromatography column was a Phenomenex-Kinetex XB C18 (2.10 x 50 mm; 2.6 μm), with a 0.7 mL/min flow rate and a 2 μL injection volume. […] The gradient was initiated with 20% B and increased linearly, reaching 40% B at 0.6 min, followed by 50% B at 0.8 min and by 95% B at 0.9 min. Conditions were kept isocratic through 1.2 min, returned to starting conditions (20% B) at 1.25 min, and maintained at 20% B through 1.5 min before the next injection. Since fosmetpantotenate is a mixture of diastereomers which are resolved chromatographically, the fosmetpantotenate MRM area corresponds to the sum of the MRM areas of the individual diastereomers.
The percent of compound remaining was determined from the MRM area response in each sample relative to that in the T = 0 samples (normalized for internal standard). Natural log plots of the percent compound remaining over time were used to determine the t½ of compound disappearance using the relationship t½ = -0.693/λ, where λ is the slope of the natural logarithm of the percent compound remaining vs time curve.

[3] = Metabolic stability in rat liver microsomes; assay type: in vitro ADME; details: pooled liver microsomes
Experimental: (§1) Metabolic stability in blood and liver microsomes: Fosmetpantotenate or its individual diastereomers (5 μM, n = 2, 37°C) were incubated in mouse, rat, cynomolgus monkey, and human whole blood. Samples (50 μL) were taken at 0, 5, 15, 30, and 60 min. Incubations of fosmetpantotenate or its individual diastereomers (1 μM, n = 2, 37°C) in pooled liver microsomes (0.25 mg protein/mL in 0.1 M phosphate buffer pH 7.4) were initiated with the addition of nicotinamide adenine dinucleotide phosphate (NADPH; 1 mM). Aliquots (100 μL) were obtained at 0, 5, 10, 20, and 40 min and added to 150 μL of 0.1% formic acid in acetonitrile-containing carbamazepine (0.5 μM) as an analytical internal standard, centrifuged, and the supernatants analyzed by LC-MS/MS.
(§2) Bioanalysis for determinations of analyte stability: Samples were analyzed using a benchtop tandem quadrupole detector (TQD) mass spectrometer (Waters Ltd, Centennial Park, Hertfordshire). […] Suitable retention and peak shape with separation of the 2 diastereomers were obtained. The chromatography column was a Phenomenex-Kinetex XB C18 (2.10 x 50 mm; 2.6 μm), with a 0.7 mL/min flow rate and a 2 μL injection volume. […]
(§3) The percent of compound remaining was determined from the MRM area response in each sample relative to that in the T = 0 samples (normalized for internal standard). […]

[4] = Metabolic stability in monkey liver microsomes; assay type: in vitro ADME; details: pooled liver microsomes
Experimental: as §1, §2, §3

[5] = Microdialysis (brain striatal dialysate) in C57Bl6 mice; details: for Fosmetpantotenate Total Concentration in Mouse Striatal Dialysate (Corrected for Dilution): individual mice, non-fasted male C57/Bl6; for Fosmetpantotenate Total Concentration in Mouse Striatal Dialysate (Corrected for Dilution), Mean: mean of 8 mice
Experimental: Mice were anesthetized using isoflurane (2%, 800 mL/min O2).
For oral dosing experiments, MetaQuant microdialysis probes (regenerated cellulose membrane, BrainLink, the Netherlands) were inserted into the striatum (3 mm exposed surface). Coordinates for the tips of the probes for mice were anterior-posterior (AP) = +0.8 mm from bregma, lateral (L) = -1.7 mm from midline, and ventral (V) = -4.0 mm from dura, the toothbar set at 0 mm.
Microdialysis animal dosing and sample collection: Adult non-fasted male C57Bl6 mice (20–29 g; Harlan Laboratories, Livermore, CA), and Macaca fascicularis (4–9 kg, 3–6 yr old) were used for the experiments. For oral dosing, fosmetpantotenate was formulated as a solution in 20% hydroxypropyl-beta-cyclodextrin in 50 mM citrate buffer in water pH 5.0 and administered using a dose volume of 10 mL/kg. Mice (N = 6 serially sampled) received fosmetpantotenate as a single oral dose at 700 mg/kg and monkeys received a single oral dose at either 100 mg/kg (N = 4 serially sampled) or 300 mg/kg (N = 2 serially sampled).
Microdialysis: On the morning of the microdialysis experiment, a MetaQuant probe was inserted into the guide shaft targeting the head of the caudate nucleus and perfused at a rate of 0.15 μL/min aCSF containing 0.2% (w/v) BSA, with a carrier flow of 0.8 μL/min of ultrapure water.
A single 30 min pre-dose basal dialysate sample was collected from mice over -0.5 to 0 h, and three 30 min basal samples from monkeys over -1.5 to 0 h. Fosmetpantotenate was administered at t = 0, and 30 min dialysate samples were collected for an additional 4 h for mice and 3 h for monkeys.
Sample preparation for mouse dialysate samples: Concentrations of fosmetpantotenate, PA, and PPA in mouse dialysate were determined by Nextcea, Inc, Woburn, MA, using LC-MS/MS. Standard curves and QC samples containing fosmetpantotenate (D1 and D2) and the surrogate analytes for PA and PPA (^15N/^13C3-PA and ^15N/^13C3-PPA) were prepared fresh in 0.1% formic acid in water. Frozen study mouse dialysate samples were thawed in ice/water bath. Standards, QC samples, and thawed study dialysate samples (20 μL) were mixed with 20 μL 0.1% formic acid in water containing internal standard (50 ng/mL of ^15N/^13C3-fosmetpantotenate) and analyzed by LC-MS/MS.
LC-MS/MS analysis for mouse dialysate samples: Concentrations of fosmetpantotenate, PA, and PPA in dialysate from mice were determined by using LC-MS/MS conditions described for blood PK analysis by Nextcea, except dialysate samples were analyzed using an ACIEX API 5000 and flow rate was increased to 0.6 mL/min.
Quantitation of in vivo samples: Peak areas were integrated using Analyst software (AB Sciex, Concord, Ontario, Canada). Calibration curves for all blood samples from mouse and rat PK studies and mouse dialysate samples were prepared by plotting the analyte to internal standard (^15N/^13C3-fosmetpantotenate) peak area ratio vs concentration.

[6] = system: porcine brain endothelial cell (PBEC) co-culture model; assay: In vitro blood-brain barrier permeability (PBEC/rat astrocyte co-culture); details: in words
Experimental: Permeability studies were performed after 2 days of co-culture with rat astrocytes. […] In each filter used for transport, a paracellular marker was included as an internal control to monitor the integrity of the cell monolayer. The day of the experiment, culture medium was removed and cells on Transwell inserts were pre-incubated for 30 min with Hank's Balanced Salt Solution (HBSS) containing 20 mM Hepes pH 7.4 and 0.1% bovine serum albumin (BSA). […] Aliquots from the basal compartment were taken after 1 h; fluorescence was measured using a fluorescence detector. The permeability coefficient of the total system was calculated as follows: P[cm/s]=Vd×ΔMr/A×Md×Δt Where:
To correct for the contribution of the porous polycarbonate membrane of the filter in the absence of cells, the permeability was also determined for the cell-free system. Contribution of the endothelial cell monolayer to the permeability of the cell and filter system was determined by the following equation: 1/Pe=1/Pt-1/Pf Where the total permeability of the system is denoted as Pt, the cell-free filter as Pf, and the endothelial cell layer alone as Pe. The total resistance of the system towards passage of a substance is composed of 2 resistances in series: that of the cell monolayer and that of the filter; permeability is estimated as 1/resistance [27]. […] Mass balance was determined based on the amount of compound recovered in the donor and receiver chamber at the end of the assay relative to the amount added to the donor chamber at time 0.

[7] = pH 7.4, read-out: intrinsic clearance
[8] = single oral 700 mg/kg fosmetpantotenate, collection time 0 hr, BQL=8.08 nM
[9] = single oral 700 mg/kg fosmetpantotenate, collection time 0.5 hr, BQL=8.08 nM
[10] = single oral 700 mg/kg fosmetpantotenate, collection time 1 hr, BQL=8.08 nM
[11] = single oral 700 mg/kg fosmetpantotenate, collection time 1.5 hr, BQL=8.08 nM
[12] = single oral 700 mg/kg fosmetpantotenate, collection time 2 hr, BQL=8.08 nM
[13] = single oral 700 mg/kg fosmetpantotenate, collection time 2.5 hr, BQL=8.08 nM
[14] = single oral 700 mg/kg fosmetpantotenate, collection time 3 hr, BQL=8.08 nM
[15] = single oral 700 mg/kg fosmetpantotenate, collection time 3.5 hr, BQL=8.08 nM
[16] = single oral 700 mg/kg fosmetpantotenate, collection time 4 hr, BQL=8.08 nM
[17] = male, C57Bl6, mouse, striatal dialysate (brain microdialysate), other: direct infusion into the striatum via cannula, 125 µg per animal

## COC(=O)CCNC(=O)[C@H](O)C(C)(C)COP(=O)(N[C@@H](C)C(=O)OC)Oc1ccccc1 (mixture of isomers) [Fosmetpantotenate]
[1]; 1 μM TID, day 1
  change in acetyl tubulin: statistically significant decrease
[1]; 1 μM TID, day 5
  increase in acetyl tubulin: ~ 1.6 fold
[1]; 25 μM
  Tubulin Acetylation (fold of control): 2.32 ± 0.64 fold of control
[1]; 25 µM
  Acetyl tubulin level (fold over vehicle): 1.86 fold over vehicle and 2.77 ± 0.13 fold over vehicle
[1]; 50 μM
  Tubulin Acetylation (fold of control): 3.68 ± 1.13 fold of control
[1]; 50 µM
  Acetyl tubulin level (fold over vehicle): 3.02 fold over vehicle and 3.03 ± 0.05 fold over vehicle and 4.99 ± 0.03 fold over vehicle
[1]; 200 μM
  Tubulin Acetylation (fold of control): 5.12 ± 2.57 fold of control
[1]; Experiment 1, DAY 1
  Acetyl tubulin (quantification): 5352.933 and 4967.69
  Acetyl tubulin Normalized (to actin): 1.0
[1]; Experiment 1, DAY 3
  Acetyl tubulin (quantification): 5869.761 and 6720.347
  Acetyl tubulin Normalized (to actin): 1.2 and 1.5
[1]; Experiment 1, DAY 5
  Acetyl tubulin (quantification): 9323.933 and 10851.882
  Acetyl tubulin Normalized (to actin): 2.0 and 2.1
[1]; Experiment 2, DAY 1
  Acetyl tubulin (quantification): 2820.548 and 2422.355
  Acetyl tubulin Normalized (to actin): 1.1 and 1.0
[1]; Experiment 2, DAY 3
  Acetyl tubulin (quantification): 5646.447 and 4155.426
  Acetyl tubulin Normalized (to actin): 2.6
[1]; Experiment 2, DAY 5
  Acetyl tubulin (quantification): 4976.426 and 5163.962
  Acetyl tubulin Normalized (to actin): 2.2 and 1.9
[2]
  half-life at 10 μM: > 600 min
[3]; pH 7.4, 1 μM, NADPH
  half-life at 1 μM: 8 min
[3]; [7]
  microsomal CLint at 1 μM: 335 µL/min/mg
[4]; pH 7.4, 1 μM, NADPH
  half-life at 1 μM: 11 min
[4]; [7]
  microsomal CLint at 1 μM: 263 µL/min/mg
[5]; [8]
  Fosmetpantotenate Total Concentration in Mouse Striatal Dialysate (Corrected for Dilution): BQL
  Fosmetpantotenate Total Concentration in Mouse Striatal Dialysate (Corrected for Dilution), Mean: BQL
[5]; [9]
  Fosmetpantotenate Total Concentration in Mouse Striatal Dialysate (Corrected for Dilution): BQL
  Fosmetpantotenate Total Concentration in Mouse Striatal Dialysate (Corrected for Dilution), Mean: BQL
[5]; [10]
  Fosmetpantotenate Total Concentration in Mouse Striatal Dialysate (Corrected for Dilution): BQL
  Fosmetpantotenate Total Concentration in Mouse Striatal Dialysate (Corrected for Dilution), Mean: BQL
[5]; [11]
  Fosmetpantotenate Total Concentration in Mouse Striatal Dialysate (Corrected for Dilution): BQL
  Fosmetpantotenate Total Concentration in Mouse Striatal Dialysate (Corrected for Dilution), Mean: BQL
[5]; [12]
  Fosmetpantotenate Total Concentration in Mouse Striatal Dialysate (Corrected for Dilution): BQL
  Fosmetpantotenate Total Concentration in Mouse Striatal Dialysate (Corrected for Dilution), Mean: BQL
[5]; [13]
  Fosmetpantotenate Total Concentration in Mouse Striatal Dialysate (Corrected for Dilution): BQL
  Fosmetpantotenate Total Concentration in Mouse Striatal Dialysate (Corrected for Dilution), Mean: BQL
[5]; [14]
  Fosmetpantotenate Total Concentration in Mouse Striatal Dialysate (Corrected for Dilution): BQL
  Fosmetpantotenate Total Concentration in Mouse Striatal Dialysate (Corrected for Dilution), Mean: BQL
[5]; [15]
  Fosmetpantotenate Total Concentration in Mouse Striatal Dialysate (Corrected for Dilution): BQL
  Fosmetpantotenate Total Concentration in Mouse Striatal Dialysate (Corrected for Dilution), Mean: BQL
[5]; [16]
  Fosmetpantotenate Total Concentration in Mouse Striatal Dialysate (Corrected for Dilution): BQL
  Fosmetpantotenate Total Concentration in Mouse Striatal Dialysate (Corrected for Dilution), Mean: BQL
[5]; single oral dose (so in the source) 125 µg fosmetpantotenate per animal, collection time 0 hr
  Fosmetpantotenate Total Concentration in Mouse Striatal Dialysate (Corrected for Dilution): 0.1306 µM and 0.109 µM and 0.0833 µM and 0.3107 µM and 0.3579 µM and 0.2168 µM and 0.4624 µM
[5]; single oral dose (so in the source) 125 µg fosmetpantotenate per animal, collection time 0.5 hr
  Fosmetpantotenate Total Concentration in Mouse Striatal Dialysate (Corrected for Dilution): 27.5961 µM and 228.5933 µM and 5852.2469 µM and 2389.398 µM and 1463.0617 µM and 6013.9111 µM and 2121.0353 µM
[5]; single oral dose (so in the source) 125 µg fosmetpantotenate per animal, collection time 1 hr
  Fosmetpantotenate Total Concentration in Mouse Striatal Dialysate (Corrected for Dilution): 3.7441 µM and 35.9218 µM and 1147.8164 µM and 370.2112 µM and 269.3327 µM and 936.0362 µM and 475.293 µM
[5]; single oral dose (so in the source) 125 µg fosmetpantotenate per animal, collection time 1.5 hr
  Fosmetpantotenate Total Concentration in Mouse Striatal Dialysate (Corrected for Dilution): 0.2457 µM and 3.8638 µM and 77.1139 µM and 16.3443 µM and 13.2241 µM and 54.6749 µM and 52.7026 µM
[5]; single oral dose (so in the source) 125 µg fosmetpantotenate per animal, collection time 2 hr
  Fosmetpantotenate Total Concentration in Mouse Striatal Dialysate (Corrected for Dilution): 0.2142 µM and 1.3919 µM and 11.6398 µM and 2.8307 µM and 6.9839 µM and 18.3812 µM and 13.5798 µM
[5]; single oral dose (so in the source) 125 µg fosmetpantotenate per animal, collection time 2.5 hr
  Fosmetpantotenate Total Concentration in Mouse Striatal Dialysate (Corrected for Dilution): 0.2094 µM and 0.4624 µM and 4.0416 µM and 0.9538 µM and 6.8061 µM and 14.469 µM and 7.8892 µM
[5]; single oral dose (so in the source) 125 µg fosmetpantotenate per animal, collection time 3 hr
  Fosmetpantotenate Total Concentration in Mouse Striatal Dialysate (Corrected for Dilution): 0.1664 µM and 0.2839 µM and 1.9869 µM and 1.0929 µM and 4.1402 µM and 11.268 µM and 3.6164 µM
[5]; single oral dose (so in the source) 125 µg fosmetpantotenate per animal, collection time 3.5 hr
  Fosmetpantotenate Total Concentration in Mouse Striatal Dialysate (Corrected for Dilution): 0.1305 µM and 0.2331 µM and 1.7056 µM and 0.6693 µM and 3.2575 µM and 11.9147 µM and 1.9173 µM
[5]; single oral dose (so in the source) 125 µg fosmetpantotenate per animal, collection time 4 hr
  Fosmetpantotenate Total Concentration in Mouse Striatal Dialysate (Corrected for Dilution): 0.1387 µM and 0.2171 µM and 1.4129 µM and 0.5497 µM and 2.2649 µM and 9.8939 µM and 1.5099 µM
[5]; [17]
  concentration at 0 h: 0.239 µM
  concentration at 0.5 h: 2590 µM
  concentration at 1 h: 463 µM
  concentration at 1.5 h: 31.2 µM
  concentration at 2 h: 7.86 µM
  concentration at 2.5 h: 4.98 µM
  concentration at 3 h: 3.22 µM
  concentration at 3.5 h: 2.83 µM
  concentration at 4 h: 2.28 µM
[5]; striatal dialysate, fosmetpantotenate 700 mg/kg PO, analyte = label, not baseline-adjusted
  Cmax: <LLOQ
[6]
  blood-brain barrier permeability classification: permeable
